Values quoted from earlier work as cited in patent US20160220569A1, “CDK4/6 Inhibitor Dosage Formulations For The Protection Of Hematopoietic Stem And Progenitor Cells During Chemotherapy” (G1 Therapeutics, Inc., priority 2015, published 2016).
Like-named read-outs stand apart in the source and are kept apart here.

Experiments:
[1] = cited from earlier work
[2] = cited from earlier work; remark: listed apart in the source
[3] = Grade 3/4 neutropenia and leukopenia with palbociclib

In the case of `CCN1CCN(Cc2ccc(Nc3ncc(F)c(-c4cc(F)c5nc(C)n(C(C)C)c5c4)n3)nc2)CC1` [Abemaciclib], the “diarrhea in clinical trials” value ([1]; abemaciclib, gastrointestinal toxicity) is given as “greater than 50%”.
For `CC(=O)c1c(C)c2cnc(Nc3ccc(N4CCNCC4)cn3)nc2n(C2CCCC2)c1=O` [palbociclib, 6-acetyl-8-cyclopentyl-5-methyl-2-(5-piperazin-1-yl-pyridin-2-ylammino)-8H-pyrido-[2,3-d]-pyrimidin-7-one], the “patients requiring a dose interruption” value [1, 3] is listed as 71%, the “patients requiring a dose reduction” value [1, 3] is listed as 35% and the “AUC (0-10)” value ([2]; 100 mg QD, Day 1) is listed as 333 ng·h/mL. For the same molecule, the Cmax ([2]; 100 mg QD, Day 1) was 44 ng/mL, the Tmax ([2]; 100 mg QD, Day 1) was 4 h and the “AUC (0-10)” value ([2]; 100 mg QD, Day 8) was 433 ng·h/mL. For the same molecule, the Cmax ([2]; 100 mg QD, Day 8) was 58 ng/mL, the Tmax ([2]; 100 mg QD, Day 8) was 4 h and the “AUC (0-10)” value ([2]; 150 mg QD, Day 1) was 622 ng·h/mL. For the same molecule, the Cmax ([2]; 150 mg QD, Day 1) was 78 ng/mL, the Tmax ([2]; 150 mg QD, Day 1) was 6 h and the “AUC (0-10)” value ([2]; 150 mg QD, Day 8) was 1599 ng·h/mL. For the same molecule, the Cmax ([2]; 150 mg QD, Day 8) was 194 ng/mL, the Tmax ([2]; 150 mg QD, Day 8) was 7 h and the “AUC(0-inf)” value ([2]; 150 mg oral) was 2002 n*hr/ml. The CL/F ([2]; 150 mg oral) was 88.5 L/h, the Cmax ([2]; 150 mg oral) was 78 ng/mL and the T1/2 ([2]; 150 mg oral) was 26.7 h. The “AUC (0-10)” value ([2]; 200 mg QD, Day 1) was 525 ng·h/mL, the Cmax ([2]; 200 mg QD, Day 1) was 81 ng/mL and the Tmax ([2]; 200 mg QD, Day 1) was 5.7 h. For the same molecule, the “AUC (0-10)” value ([2]; 200 mg QD, Day 8) was 1395 ng·h/mL, the Cmax ([2]; 200 mg QD, Day 8) was 174 ng/mL and the Tmax ([2]; 200 mg QD, Day 8) was 4 h. For the same molecule, the “AUC (0-10)” value ([2]; 225 mg QD, Day 1) was 718 ng·h/mL, the Cmax ([2]; 225 mg QD, Day 1) was 104 ng/mL and the Tmax ([2]; 225 mg QD, Day 1) was 4 h. For the same molecule, the “AUC (0-10)” value ([2]; 225 mg QD, Day 8) was 1491 ng·h/mL, the Cmax ([2]; 225 mg QD, Day 8) was 186 ng/mL and the Tmax ([2]; 225 mg QD, Day 8) was 4.5 h. The T1/2 ([2]; palbociclib, literature) was “roughly 26.7 hours”.
For `CN(C)C(=O)c1cc2cnc(Nc3ccc(N4CCNCC4)cn3)nc2n1C1CCCC1` [ribociclib], the associated adverse effect ([1]; ribociclib administration) is listed as “QT prolongation”.
